# Marks after values point to notes of the source that are not given here.
# System: mouse organs
# Test: In vivo activity screening in mice: organ mean total flux (p/s) of luciferase activity after injection of F2 LNP pools (Table 6, FIG. 7A-7C)
# Conditions: luciferase mRNA
# Summary of the method: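 Luciferase output per organ is reported as mean total flux (p/s) from IVIS regions of interest. Organs were collected from perfused C57BL/6J mice and imaged 10-15 min after s.c. D-luciferin, 4-6 h after i.v. dosing. Dosing was 0.25-3 mg/kg luciferase mRNA in F2 LNP pools.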
smiles,measurement,setting,value
"CCCCC/C=C\CCOC(=O)CCCCCCC(=O)OCC(COC(=O)CCCCCCC(=O)OCC/C=C\CCCCC)(COC(=O)CCCCCCC(=O)OCC/C=C\CCCCC)COC(=O)CCC(CCCCCC)OC(=O)NCCN(C)CC (stereo not drawn) [Compound 29, O8-[2-[4-[2-[ethyl(methyl)amino]ethylcarbamoyloxy]decanoyloxymethyl]-3-[8-[(Z)-non-3-enoxy]-8-oxo-octanoyl]oxy-2-[[8-[(Z)-non-3-enoxy]-8-oxooctanoyl]oxymethyl]propyl]O1-[(Z)-non-3-enyl]octanedioate]",Organ Mean Total Flux Femur,"Mouse 6, dose 0.5 mg/kg",4.2 p/s (×10^6)
same,Organ Mean Total Flux Heart,"Mouse 6, dose 0.5 mg/kg",3.9 p/s (×10^6)
same,Organ Mean Total Flux Kidney,"Mouse 6, dose 0.5 mg/kg",3.2 p/s (×10^6)
same,Organ Mean Total Flux Liver,"Mouse 6, dose 0.5 mg/kg",1913 p/s (×10^6)
same,Organ Mean Total Flux Lung,"Mouse 6, dose 0.5 mg/kg",11.4 p/s (×10^6)
same,Organ Mean Total Flux Muscle,"Mouse 6, dose 0.5 mg/kg",10.3 p/s (×10^6)
same,Organ Mean Total Flux Pancreas,"Mouse 6, dose 0.5 mg/kg",1.4 p/s (×10^6)
same,Organ Mean Total Flux Spleen,"Mouse 6, dose 0.5 mg/kg",3.3 p/s (×10^6)
"CCCCC/C=C\CCOC(=O)CCCC(=O)OCC(COC(=O)CCCC(=O)OCC/C=C\CCCCC)(COC(=O)CCCC(=O)OCC/C=C\CCCCC)COC(=O)CCC(CCCCCC)OC(=O)NCCN1CCCC1 (stereo not drawn) [Compound 49, O5-[2,2-bis[[5-[(Z)-non-3-enoxy]-5-oxo-pentanoyl]oxymethyl]-3-[4-(2-pyrrolidin-1-ylethylcarbamoyloxy)decanoyloxy]-propyl]O1-[(Z)-non-3-enyl]pentanedioate]",Organ Mean Total Flux Femur,"Mouse 13, dose 0.5 mg/kg",10.2 p/s (×10^6)
same,Organ Mean Total Flux Heart,"Mouse 13, dose 0.5 mg/kg",0.5 p/s (×10^6)
same,Organ Mean Total Flux Kidney,"Mouse 13, dose 0.5 mg/kg",1.4 p/s (×10^6)
same,Organ Mean Total Flux Liver,"Mouse 13, dose 0.5 mg/kg",185.5 p/s (×10^6)
same,Organ Mean Total Flux Lung,"Mouse 13, dose 0.5 mg/kg",11.8 p/s (×10^6)
same,Organ Mean Total Flux Muscle,"Mouse 13, dose 0.5 mg/kg",2.9 p/s (×10^6)
same,Organ Mean Total Flux Pancreas,"Mouse 13, dose 0.5 mg/kg",7.5 p/s (×10^6)
same,Organ Mean Total Flux Spleen,"Mouse 13, dose 0.5 mg/kg",57.1 p/s (×10^6)
"CCCCCCCCCOC(=O)CCCCC(=O)OCC(COC(=O)CCCCC(=O)OCCCCCCCCC)(COC(=O)CCCCC(=O)OCCCCCCCCC)COC(=O)CCC(CCCCCC)OC(=O)NCCN1CCCC1 (stereo not drawn) [Compound 50, O6-[2,2-bis[(6-nonoxy-6-oxo-hexanoyl)oxymethyl]-3-[4-(2-pyrrolidin-1-ylethylcarbamoyloxy)decanoyloxy]propyl]O1-nonyl hexanedioate]",Organ Mean Total Flux Femur,"Mouse 3, dose 1.0 mg/kg",3.8 p/s (×10^6)
same,Organ Mean Total Flux Heart,"Mouse 3, dose 1.0 mg/kg",3.1 p/s (×10^6)
same,Organ Mean Total Flux Kidney,"Mouse 3, dose 1.0 mg/kg",2.1 p/s (×10^6)
same,Organ Mean Total Flux Liver,"Mouse 3, dose 1.0 mg/kg",2413 p/s (×10^6)
same,Organ Mean Total Flux Lung,"Mouse 3, dose 1.0 mg/kg",12.1 p/s (×10^6)
same,Organ Mean Total Flux Muscle,"Mouse 3, dose 1.0 mg/kg",3.8 p/s (×10^6)
same,Organ Mean Total Flux Pancreas,"Mouse 3, dose 1.0 mg/kg",8.8 p/s (×10^6)
same,Organ Mean Total Flux Spleen,"Mouse 3, dose 1.0 mg/kg",9.0 p/s (×10^6)
same,Organ Mean Total Flux Femur,"Mouse 13, dose 0.5 mg/kg",1.2 p/s (×10^6)
same,Organ Mean Total Flux Heart,"Mouse 13, dose 0.5 mg/kg",1.0 p/s (×10^6)
same,Organ Mean Total Flux Kidney,"Mouse 13, dose 0.5 mg/kg",0.7 p/s (×10^6)
same,Organ Mean Total Flux Liver,"Mouse 13, dose 0.5 mg/kg",569.7 p/s (×10^6)
same,Organ Mean Total Flux Lung,"Mouse 13, dose 0.5 mg/kg",4.7 p/s (×10^6)
same,Organ Mean Total Flux Muscle,"Mouse 13, dose 0.5 mg/kg",2.3 p/s (×10^6)
same,Organ Mean Total Flux Pancreas,"Mouse 13, dose 0.5 mg/kg",1.5 p/s (×10^6)
same,Organ Mean Total Flux Spleen,"Mouse 13, dose 0.5 mg/kg",4.7 p/s (×10^6)
"CCCCCCCC(C)OC(=O)CCCCCCC(=O)OCC(COC(=O)CCCCCCC(=O)OC(C)CCCCCCC)(COC(=O)CCCCCCC(=O)OC(C)CCCCCCC)COC(=O)CCC(CCCCCC)OC(=O)NCCN1CCCC1 (stereo not drawn) [Compound 37, O1-[2,2-bis[[8-(1-methyloctoxy)-8-oxo-octanoyl]oxymethyl]-3-[4-(2-pyrrolidin-1-ylethylcarbamoyloxy)decanoyloxy]propyl]O8-(1-methyloctyl) octanedioate]",Organ Mean Total Flux Femur,"Mouse 11, dose 0.5 mg/kg",2.2 p/s (×10^6)
same,Organ Mean Total Flux Heart,"Mouse 11, dose 0.5 mg/kg",1.9 p/s (×10^6)
same,Organ Mean Total Flux Kidney,"Mouse 11, dose 0.5 mg/kg",0.8 p/s (×10^6)
same,Organ Mean Total Flux Liver,"Mouse 11, dose 0.5 mg/kg",1737 p/s (×10^6)
same,Organ Mean Total Flux Lung,"Mouse 11, dose 0.5 mg/kg",10.5 p/s (×10^6)
same,Organ Mean Total Flux Muscle,"Mouse 11, dose 0.5 mg/kg",5.2 p/s (×10^6)
same,Organ Mean Total Flux Pancreas,"Mouse 11, dose 0.5 mg/kg",0.6 p/s (×10^6)
same,Organ Mean Total Flux Spleen,"Mouse 11, dose 0.5 mg/kg",2.5 p/s (×10^6)
"CCCCCCCCCCOC(=O)CCCCCCC(=O)OCC(COC(=O)CCCCCCC(=O)OCCCCCCCCCC)(COC(=O)CCCCCCC(=O)OCCCCCCCCCC)COC(=O)CCC(CCCCCC)OC(=O)NCCN1CCCC1 (stereo not drawn) [Compound 35, O8-[2,2-bis[(8-decoxy-8-oxo-octanoyl)oxymethyl]-3-[4-(2-pyrrolidin-1ylethylcarbamoyloxy)decanoyloxy]propyl]O1-decyloctanedioate]",Organ Mean Total Flux Femur,"Mouse 6, dose 0.5 mg/kg",4.2 p/s (×10^6)
same,Organ Mean Total Flux Heart,"Mouse 6, dose 0.5 mg/kg",1.3 p/s (×10^6)
same,Organ Mean Total Flux Kidney,"Mouse 6, dose 0.5 mg/kg",1.3 p/s (×10^6)
same,Organ Mean Total Flux Liver,"Mouse 6, dose 0.5 mg/kg",850.3 p/s (×10^6)
same,Organ Mean Total Flux Lung,"Mouse 6, dose 0.5 mg/kg",11.0 p/s (×10^6)
same,Organ Mean Total Flux Muscle,"Mouse 6, dose 0.5 mg/kg",15.5 p/s (×10^6)
same,Organ Mean Total Flux Pancreas,"Mouse 6, dose 0.5 mg/kg",2.5 p/s (×10^6)
same,Organ Mean Total Flux Spleen,"Mouse 6, dose 0.5 mg/kg",5.4 p/s (×10^6)
"CCCCCCCCCC(C)OC(=O)CCCCCCC(=O)OCC(COC(=O)CCCCCCC(=O)OC(C)CCCCCCCCC)(COC(=O)CCCCCCC(=O)OC(C)CCCCCCCCC)COC(=O)CCC(CCCCCC)OC(=O)NCCN1CCCC1 (stereo not drawn) [Compound 41, O1-[2,2-bis[[8-(1-methyldecoxy)-8-oxo-octanoyl]oxymethyl]-3-[4-(2-pyrrolidin-1-ylethylcarbamoyloxy)decanoyloxy]propyl]O8-(1-methyldecyl) octanedioate]",Organ Mean Total Flux Femur,"Mouse 5, dose 0.5 mg/kg",3.8 p/s (×10^6)
same,Organ Mean Total Flux Heart,"Mouse 5, dose 0.5 mg/kg",2.2 p/s (×10^6)
same,Organ Mean Total Flux Kidney,"Mouse 5, dose 0.5 mg/kg",2.8 p/s (×10^6)
same,Organ Mean Total Flux Liver,"Mouse 5, dose 0.5 mg/kg",3493 p/s (×10^6)
same,Organ Mean Total Flux Lung,"Mouse 5, dose 0.5 mg/kg",18.0 p/s (×10^6)
same,Organ Mean Total Flux Muscle,"Mouse 5, dose 0.5 mg/kg",10.0 p/s (×10^6)
same,Organ Mean Total Flux Pancreas,"Mouse 5, dose 0.5 mg/kg",0.8 p/s (×10^6)
same,Organ Mean Total Flux Spleen,"Mouse 5, dose 0.5 mg/kg",2.5 p/s (×10^6)
"CCCCCCC(CCCC)COC(=O)CCCCCC(=O)OCC(COC(=O)CCCCCC(=O)OCC(CCCC)CCCCCC)(COC(=O)CCCCCC(=O)OCC(CCCC)CCCCCC)COC(=O)CCC(CCCCCC)OC(=O)NCCN1CCCC1 (stereo not drawn) [Compound 51, O7-[2,2-bis[[7-(2-butyloctoxy)-7-oxo-heptanoyl]oxymethyl]-3-[4-(2-pyrrolidin-1ylethylcarbamoyloxy)decanoyloxy]propyl]O1-(2-butyloctyl) heptanedioate]",Organ Mean Total Flux Femur,"Mouse 3, dose 1.0 mg/kg",7.5 p/s (×10^6)
same,Organ Mean Total Flux Heart,"Mouse 3, dose 1.0 mg/kg",16.0 p/s (×10^6)
same,Organ Mean Total Flux Kidney,"Mouse 3, dose 1.0 mg/kg",7.2 p/s (×10^6)
same,Organ Mean Total Flux Liver,"Mouse 3, dose 1.0 mg/kg",15467 p/s (×10^6)
same,Organ Mean Total Flux Lung,"Mouse 3, dose 1.0 mg/kg",59.6 p/s (×10^6)
same,Organ Mean Total Flux Muscle,"Mouse 3, dose 1.0 mg/kg",16.5 p/s (×10^6)
same,Organ Mean Total Flux Pancreas,"Mouse 3, dose 1.0 mg/kg",4.9 p/s (×10^6)
same,Organ Mean Total Flux Spleen,"Mouse 3, dose 1.0 mg/kg",9.7 p/s (×10^6)
"CCCCC/C=C\CCOC(=O)CCCCC(=O)OCC(COC(=O)CCCCC(=O)OCC/C=C\CCCCC)(COC(=O)CCC(CCCCCC)OC(=O)NCCN1CCCC1)COC(=O)[C@]12CC[C@H](CC1)C2 (stereo partly drawn) [Compound 99, O6-[2-[[6-[(Z)-non-3-enoxy]-6-oxo-hexanoyl]oxymethyl]-2-(norbornane-1-carbonyloxymethyl)-3-[4-(2-pyrrolidin-1-ylethylcarbamoyloxy)decanoyloxy]propyl]O1-[(Z)-non-3-enyl]hexanedioate]",Organ Mean Total Flux Femur,"Mouse 12, dose 0.5 mg/kg",7.2 p/s (×10^6)
same,Organ Mean Total Flux Heart,"Mouse 12, dose 0.5 mg/kg",0.4 p/s (×10^6)
same,Organ Mean Total Flux Kidney,"Mouse 12, dose 0.5 mg/kg",1.2 p/s (×10^6)
same,Organ Mean Total Flux Liver,"Mouse 12, dose 0.5 mg/kg",177.0 p/s (×10^6)
same,Organ Mean Total Flux Lung,"Mouse 12, dose 0.5 mg/kg",31.4 p/s (×10^6)
same,Organ Mean Total Flux Muscle,"Mouse 12, dose 0.5 mg/kg",6.5 p/s (×10^6)
same,Organ Mean Total Flux Pancreas,"Mouse 12, dose 0.5 mg/kg",4.3 p/s (×10^6)
same,Organ Mean Total Flux Spleen,"Mouse 12, dose 0.5 mg/kg",47.5 p/s (×10^6)
"CCCCCCCCCOC(=O)CCCCCCC(=O)OCC(COC(=O)CCCCCCC(=O)OCCCCCCCCC)(COC(=O)CCCCCCC(=O)OCCCCCCCCC)COC(=O)CCC(CCCCCC)OC(=O)NCCN1CCCC1 (stereo not drawn) [Compound 23, O8-[2,2-bis[(8-nonoxy-8-oxo-octanoy)oxymethyl]-3-[4-(2-pyrrolidin-1-ylethylcarbamoyloxy)decanoyloxy]propyl]O1-nonyl octanedioate]",Organ Mean Total Flux Femur,"Mouse 11, dose 0.5 mg/kg",1.2 p/s (×10^6)
same,Organ Mean Total Flux Heart,"Mouse 11, dose 0.5 mg/kg",2.1 p/s (×10^6)
same,Organ Mean Total Flux Kidney,"Mouse 11, dose 0.5 mg/kg",1.2 p/s (×10^6)
same,Organ Mean Total Flux Liver,"Mouse 11, dose 0.5 mg/kg",1727 p/s (×10^6)
same,Organ Mean Total Flux Lung,"Mouse 11, dose 0.5 mg/kg",15.7 p/s (×10^6)
same,Organ Mean Total Flux Muscle,"Mouse 11, dose 0.5 mg/kg",3.0 p/s (×10^6)
same,Organ Mean Total Flux Pancreas,"Mouse 11, dose 0.5 mg/kg",0.6 p/s (×10^6)
same,Organ Mean Total Flux Spleen,"Mouse 11, dose 0.5 mg/kg",1.7 p/s (×10^6)
"CCCCCCCCCC(C)OC(=O)CCCCCC(=O)OCC(COC(=O)CCCCCC(=O)OC(C)CCCCCCCCC)(COC(=O)CCCCCC(=O)OC(C)CCCCCCCCC)COC(=O)CCC(CCCCCC)OC(=O)NCCN1CCCC1 (stereo not drawn) [Compound 42, O1-[2,2-bis[[7-(1-methyldecoxy)-7-oxo-heptanoyl]oxymethyl]-3-[4-(2-pyrrolidin-1-ylethylcarbamoyloxy)decanoyloxy]propyl]O7-(1-methyldecyl) heptanedioate]",Organ Mean Total Flux Femur,"Mouse 5, dose 0.5 mg/kg",6.2 p/s (×10^6)
same,Organ Mean Total Flux Heart,"Mouse 5, dose 0.5 mg/kg",1.7 p/s (×10^6)
same,Organ Mean Total Flux Kidney,"Mouse 5, dose 0.5 mg/kg",1.9 p/s (×10^6)
same,Organ Mean Total Flux Liver,"Mouse 5, dose 0.5 mg/kg",1778 p/s (×10^6)
same,Organ Mean Total Flux Lung,"Mouse 5, dose 0.5 mg/kg",13.4 p/s (×10^6)
same,Organ Mean Total Flux Muscle,"Mouse 5, dose 0.5 mg/kg",25.8 p/s (×10^6)
same,Organ Mean Total Flux Pancreas,"Mouse 5, dose 0.5 mg/kg",1.8 p/s (×10^6)
same,Organ Mean Total Flux Spleen,"Mouse 5, dose 0.5 mg/kg",4.5 p/s (×10^6)
"CCCCCCC(CCC(=O)OCC(COC(=O)CCCCCOC(=O)C(CCCC)CCCCCC)(COC(=O)CCCCCOC(=O)C(CCCC)CCCCCC)COC(=O)CCCCCOC(=O)C(CCCC)CCCCCC)OC(=O)NCCN1CCCC1 (stereo not drawn) [Compound 55, [6-[2,2-bis[6-(2-butyloctanoyloxy)hexanoyloxymethyl]-3-[4-(2-pyrrolidin-1ylethylcarbamoyloxy)decanoyloxy]propoxy]-6-oxo-hexyl]2-butyloctanoate]",Organ Mean Total Flux Femur,"Mouse 3, dose 1.0 mg/kg",6.1 p/s (×10^6)
same,Organ Mean Total Flux Heart,"Mouse 3, dose 1.0 mg/kg",4.4 p/s (×10^6)
same,Organ Mean Total Flux Kidney,"Mouse 3, dose 1.0 mg/kg",2.4 p/s (×10^6)
same,Organ Mean Total Flux Liver,"Mouse 3, dose 1.0 mg/kg",4527 p/s (×10^6)
same,Organ Mean Total Flux Lung,"Mouse 3, dose 1.0 mg/kg",19.9 p/s (×10^6)
same,Organ Mean Total Flux Muscle,"Mouse 3, dose 1.0 mg/kg",17.4 p/s (×10^6)
same,Organ Mean Total Flux Pancreas,"Mouse 3, dose 1.0 mg/kg",2.6 p/s (×10^6)
same,Organ Mean Total Flux Spleen,"Mouse 3, dose 1.0 mg/kg",6.2 p/s (×10^6)

# Source: patent US20260234115A1, “LIPID COMPOUNDS, COMPOSITIONS, AND USES THEREOF” (Liberate Bio, Inc., priority 2023, published 2026)
